{"source": "patent US20010047018A1", "about": "(published 2001)"}
{"smiles": "CC(=O)NC[C@H]1CN(c2ccc3c(c2)CS(=O)(=O)N3CCF)C(=O)O1", "melting point": "84 to 87 °C (dec.)"}
{"smiles": "CC(=O)NC[C@H]1CN(c2ccc3c(c2)CS(=O)(=O)N3C)C(=O)O1", "melting point": "84 to 86 °C"}
{"smiles": "CC(=S)NC[C@H]1CN(c2ccc3c(c2)CS(=O)(=O)N3CCF)C(=O)O1", "melting point": "90 to 93 °C (dec.)"}
{"smiles": "CC(=O)NC[C@H]1CN(c2ccc3c(c2)CS(=O)(=O)N3CC#N)C(=O)O1", "melting point": "124 to 126 °C (dec.)"}
